The text below walks through data of patent US8592446B2, “[1,10]-phenanthroline derivatives for the treatment of neurodegenerative or haematological diseases” (Noscira, S.A., priority 2007, dated 2013).

For the series, the system named is SH-SY5Y human neuroblastoma cells. Description: Toxicity: LDH activity release in SH-SY5Y cells. The series is classed as cell-based. The conditions noted are these: 24 h; for Maximum concentration tested for toxicity: increasing concentrations from 1 μM up to 1 mM. As to the method: The potential effects on cell viability of the assayed compounds are assayed in SH-SY5Y human neuroblastoma cells, by quantification of Lactate dehydrogenase (LDH) activity release. SH-SY5Y human neuroblastoma cells are seeded into 96-well culture plates at 10^4 cells/well. The medium is then removed and the cells incubated with different concentrations of the compounds during 24 h. The compounds are tested at increasing concentrations starting from 1 μM, in fresh culture medium, in order to find the minimum concentration at which the compounds are toxic, up to a maximum of 1 mM. After 24 h, the medium is removed and cells attached to the bottom of the well are lysed by adding 50 μl of Krebs-Hepes; Triton X-100 1% during 5 minutes at room temperature. For LDH release quantification, the Roche cytotoxicity detection kit (Cat.
No. 11 644 793 001) is used. The LDH activity is measured by its absorbance at 492 nm with reference wavelength 620 nm.
In Table 1, for each compound the maximum concentration at which toxicity was tested is indicated in the second column. In the third column, it is indicated whether at this maximum concentration the compound was toxic or not. All the compounds, with the exception of Compound 3, resulted non-toxic at the concentration for which activity was found, in most of the cases even at a 1000-fold concentration. Thus, the compounds may be considered non-toxic.

Structures are written as SMILES.

In the case of `CSc1cc(/C=N/O)nc2c1ccc1cccnc12` [Compound 4, 4-Methylsulfanyl-[1,10]phenanthroline-2-carbaldehyde oxime], the “Maximum concentration tested for toxicity” value was found to be 1 mM. In addition, the “Toxic at maximum concentration tested (Yes/No)” value (“Toxic … (Yes/No)” for short) (at 1 mM) is “Yes”.
`COCCOc1cc(/C=N/O)nc2c1ccc1cccnc12` [Compound 8, 4-(2-Methoxy-ethoxy)-[1,10]phenanthroline-2-carbaldehyde oxime]: the “Maximum concentration tested for toxicity” value turned out to be 1 mM. The “Toxic … (Yes/No)” value (at 1 mM) is reported as “No”.
For the compound `CC(C)Sc1cc(/C=N/O)nc2c1ccc1cccnc12` [Compound 7, 4-Isopropylsulfanyl-[1,10]phenanthroline-2-carbaldehyde oxime], the “Maximum concentration tested for toxicity” value is recorded as 1 mM. Further, the “Toxic … (Yes/No)” value (at 1 mM) is on record as “Yes”.
With `CCN(CC)CCOc1cc(/C=N/O)nc2c1ccc1cccnc12` [Compound 10, 4-(2-Diethylamino-ethoxy)-[1,10]phenanthroline-2-carbaldehyde oxime], the “Maximum concentration tested for toxicity” value turned out to be 0.001 mM. Also, the “Toxic … (Yes/No)” value (at 1 μM) is reported as “Yes”.
